Non-standard residues stand in square brackets, D forms with d. Residues, ends and D or L forms follow the SMILES beside them. *: point of attachment. d(aIle) = CC[C@H](C)[C@@H](N)C(=O)O; dAllylGly = C=CC[C@@H](N)C(=O)O; AllylGly = C=CC[C@H](N)C(=O)O; dDab = NCC[C@@H](N)C(=O)O; Octanoyl = CCCCCCCC(=O)*; Dab = NCC[C@H](N)C(=O)O
Assays:
[1] = tested on: Staphylococcus aureus NCTC 10788; type: cell-based; details: NCTC 10788, 18 h
Experimental: (§1) [formula] Scheme 1 Synthesis of novel cyclic analogues of TriA1. MIC = minimum inhibitory concentration. Determined by microbroth dilutions assays and experiments run in duplicate. Values are shown to two significant figures and reported in μg mL^–1. ^a Strain NCTC 12241. ^b Strain NCTC 10788. ^c Strain NCTC 9633. ^d Strain NCTC 13304. ^e Strain NCTC 5920. […]
(§2) VIII. Antimicrobial testing
(§3) All minimum inhibitory concentrations (MICs) were determined according to Clinical and Standards Laboratory Institute (CLSI) guidelines.5 Briefly, peptides were dissolved in Muller-Hinton Broth (MHB) and serial dilutions made across a 96 well plate. Each well was inoculated with a suspension of the required bacterial strain to reach a final inoculum of 5 x 10^5 colony forming units per mL. The MIC was taken as the lowest concentration with no visible growth after 18 hours. […]

[2] = tested on: Escherichia coli NCTC 12241; type: cell-based; details: NCTC 12241, 18 h
Experimental: as §1, §2, §3

[3] = type: physicochemical; details: pH 7.4
Experimental: The D-stereoselective peptidase TriF is a membrane associated protein found in Paenibacillus polymyxa CICC 10580.[7] TriFpep, the soluble periplasmic peptidase domain of TriF, which lacks the signal peptide and four hydrophobic transmembrane helices, was expressed in E. coli BL21 cells as a C-terminal His6-tag protein construct.[7] TriA1 analogues 1–9 were incubated with TriFpep at 37 °C for 12 h and the reaction mixtures analysed by UPLC-MS. […] We were unable to test the stability of Oct-cTriA1(biphenyl) (9) as it is insoluble in the TriF assay mixture. […] These analogues therefore represent a new scaffold of macrocyclic peptides with selective activity against Gram-negative bacteria. […]
All minimum inhibitory concentrations (MICs) were determined according to Clinical and Standards Laboratory Institute (CLSI) guidelines.5 Briefly, peptides were dissolved in Muller-Hinton Broth (MHB) and serial dilutions made across a 96 well plate. […]
TriFpep was expressed and purified as previously described.3 An assay mixture (total volume 30 μL in 25% phosphate-buffered saline (PBS) buffer, pH 7.4) containing TriFpep (2.0 μM) and the desired peptide (added as a DMSO solution to give a final concentration of 20 μM) was prepared and incubated for 12 h at 37 °C. […] The samples were centrifuged at 15,000 rpm for 10 min and 2 μL of the supernatant was analyzed by UPLC–MS system as previously described.3

[4] = tested on: bacterial indicator strains; assay: Antimicrobial activity, strain not named in the sentence (microbroth dilution); type: cell-based; details: highest concentration tested 50 μg mL^–1
Experimental: as §1, §2, §3

Compound | MIC S. aureus [1] | MIC E. coli [2] | solubility in the TriF assay mixture [3] | antimicrobial activity (MIC bound, strain not named) [4]
CCCCCCCC(=O)N[C@@H](C(=O)N[C@H](CCN)C(=O)NCC(=O)N[C@H](CO)C(=O)N[C@H](Cc1c[nH]c2ccccc12)C(=O)N[C@@H](CO)C(=O)N[C@@H](CCN)C(=O)N[C@H](CCN)C(=O)N[C@@H](Cc1ccccc1)C(=O)N[C@@H](CCC(=O)O)C(=O)N[C@H](C(=O)N[C@@H](C(=O)N[C@@H](C)C(=O)O)[C@@H](C)CC)C(C)C)C(C)C [Peptide 1, Oct-TriA1] | 25 μg mL^–1 | 0.39 μg mL^–1 | – | –
C=CC[C@H](NC(=O)[C@@H](CCN)NC(=O)[C@H](CCN)NC(=O)[C@H](CO)NC(=O)[C@@H](CC=C)NC(=O)[C@@H](CO)NC(=O)CNC(=O)[C@@H](CCN)NC(=O)[C@H](NC(=O)CCCCCCC)C(C)C)C(=O)N[C@@H](CCC(=O)O)C(=O)N[C@H](C(=O)N[C@@H](C(=O)N[C@@H](C)C(=O)O)[C@@H](C)CC)C(C)C [Peptide 2, Oct-TriA1-(5-D-Agl, 9-Agl)] (Octanoyl-[dV][dDab]G[dS][dAllylGly]S[Dab][dDab][AllylGly]EV[d(aIle)]A-OH) | >50 μg mL^–1 | >50 μg mL^–1 | – | –
C=CCSC[C@H](NC(=O)[C@@H](CCN)NC(=O)[C@H](CCN)NC(=O)[C@H](CO)NC(=O)[C@@H](CSCC=C)NC(=O)[C@@H](CO)NC(=O)CNC(=O)[C@@H](CCN)NC(=O)[C@H](NC(=O)CCCCCCC)C(C)C)C(=O)N[C@@H](CCC(=O)O)C(=O)N[C@H](C(=O)N[C@@H](C(=O)N[C@@H](C)C(=O)O)[C@@H](C)CC)C(C)C [Peptide 3, Oct-TriA1-(5-D-Sac, 9-Sac)] | >50 μg mL^–1 | >50 μg mL^–1 | – | –
CCCCCCCC(=O)N[C@@H](C(=O)N[C@H](CCN)C(=O)NCC(=O)N[C@H](CO)C(=O)N[C@H](CS)C(=O)N[C@@H](CO)C(=O)N[C@@H](CCN)C(=O)N[C@H](CCN)C(=O)N[C@@H](CS)C(=O)N[C@@H](CCC(=O)O)C(=O)N[C@H](C(=O)N[C@@H](C(=O)N[C@@H](C)C(=O)O)[C@@H](C)CC)C(C)C)C(C)C [Peptide 4, Oct-TriA1-(5-D-Cys, 9-Cys)] | >50 μg mL^–1 | >50 μg mL^–1 | – | –
CCCCCCCC(=O)N[C@@H](C(=O)N[C@H](CCN)C(=O)NCC(=O)N[C@H](CO)C(=O)N[C@@H]1CSCc2ccc(cc2)-c2ccc(cc2)CSC[C@@H](C(=O)N[C@@H](CCC(=O)O)C(=O)N[C@H](C(=O)N[C@@H](C(=O)N[C@@H](C)C(=O)O)[C@@H](C)CC)C(C)C)NC(=O)[C@@H](CCN)NC(=O)[C@H](CCN)NC(=O)[C@H](CO)NC1=O)C(C)C [Peptide 9, Oct-cTriA1 (biphenyl)] | – | – | insoluble | > 50 μg mL^–1

From publication PMC6146376, “Rational design of new cyclic analogues of the antimicrobial lipopeptide tridecaptin A1” (Chemical Communications (Cambridge, England), 2018)
